{"source": "ChEMBL document CHEMBL1201862", "about": "“PubChem BioAssay data set” (2004)", "key": {"Cytochrome P450 2D6": {"molecular_target": "Cytochrome P450 2D6 (Homo sapiens, UniProt P10635)", "sequence (P10635 whole entry)": "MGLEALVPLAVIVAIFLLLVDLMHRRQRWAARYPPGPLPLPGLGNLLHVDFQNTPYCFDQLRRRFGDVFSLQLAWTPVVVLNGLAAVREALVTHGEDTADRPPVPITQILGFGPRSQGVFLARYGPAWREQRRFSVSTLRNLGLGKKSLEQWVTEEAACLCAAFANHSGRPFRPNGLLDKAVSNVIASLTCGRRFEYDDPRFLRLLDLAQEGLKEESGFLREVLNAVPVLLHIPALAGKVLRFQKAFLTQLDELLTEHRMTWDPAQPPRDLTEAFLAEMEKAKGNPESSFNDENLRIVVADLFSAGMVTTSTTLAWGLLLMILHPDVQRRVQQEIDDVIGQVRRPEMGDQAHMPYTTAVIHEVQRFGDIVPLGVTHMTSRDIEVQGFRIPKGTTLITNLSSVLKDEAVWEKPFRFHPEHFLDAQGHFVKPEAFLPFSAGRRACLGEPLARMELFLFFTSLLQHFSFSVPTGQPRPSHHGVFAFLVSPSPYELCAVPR"}, "Cytochrome P450 1A2": {"molecular_target": "T1, Cytochrome P450 1A2 (Homo sapiens, UniProt P05177)", "T1 sequence (P05177 whole entry)": "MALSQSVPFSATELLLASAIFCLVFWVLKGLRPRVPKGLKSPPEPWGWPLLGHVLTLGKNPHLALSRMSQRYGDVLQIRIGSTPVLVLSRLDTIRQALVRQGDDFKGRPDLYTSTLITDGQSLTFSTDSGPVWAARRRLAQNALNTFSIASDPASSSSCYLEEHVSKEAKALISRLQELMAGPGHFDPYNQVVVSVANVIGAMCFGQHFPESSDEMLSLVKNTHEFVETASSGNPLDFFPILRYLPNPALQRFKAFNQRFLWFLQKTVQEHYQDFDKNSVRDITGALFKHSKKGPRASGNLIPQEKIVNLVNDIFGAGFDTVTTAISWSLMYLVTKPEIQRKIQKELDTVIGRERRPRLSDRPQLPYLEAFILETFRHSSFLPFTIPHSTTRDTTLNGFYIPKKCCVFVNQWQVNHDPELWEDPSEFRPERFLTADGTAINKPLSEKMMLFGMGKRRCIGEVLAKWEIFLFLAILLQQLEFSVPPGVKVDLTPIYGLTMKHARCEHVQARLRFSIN"}, "Cytochrome P450 2C9": {"molecular_target": "Cytochrome P450 2C9 (Homo sapiens, UniProt P11712)", "sequence (P11712 whole entry)": "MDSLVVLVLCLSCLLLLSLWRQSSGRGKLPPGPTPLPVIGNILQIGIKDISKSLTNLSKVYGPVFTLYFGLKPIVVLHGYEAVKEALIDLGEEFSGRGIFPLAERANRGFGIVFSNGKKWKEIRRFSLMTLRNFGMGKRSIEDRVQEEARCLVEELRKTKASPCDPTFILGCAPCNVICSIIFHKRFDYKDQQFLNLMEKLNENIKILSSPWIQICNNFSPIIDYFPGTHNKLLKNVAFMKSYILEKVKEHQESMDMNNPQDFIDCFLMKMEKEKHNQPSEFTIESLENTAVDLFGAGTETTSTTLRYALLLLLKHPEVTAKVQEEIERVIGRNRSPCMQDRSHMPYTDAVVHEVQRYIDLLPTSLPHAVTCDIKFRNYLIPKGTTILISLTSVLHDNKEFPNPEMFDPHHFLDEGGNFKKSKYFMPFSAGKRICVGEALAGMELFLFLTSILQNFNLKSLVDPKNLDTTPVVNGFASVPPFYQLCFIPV"}, "BJ [1]": {"system": "BJ", "experiment": "BJ-TERT fibroblast viability loss – cell-based, RAS-independent, luminescence, dose response (AID 1933)", "type": "functional", "settings": "Homo sapiens"}, "[2]": {"experiment": "Trypanosoma cruzi growth suppression in host cells – NIH3T3 host cells, beta-gal luminescence, confirmation (AID 2044);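 further: intracellular parasites grown in NIH/3T3 mouse fibroblasts as host cells; luminescent beta-galactosidase reporter signal from transgenic T. cruzi replicating inside host cells; inhibitors lower the luminescence signal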", "type": "functional, cell-based"}, "[3]": {"molecular_target": "Beta-2 adrenergic receptor (Homo sapiens, UniProt P07550)", "sequence (P07550 whole entry)": "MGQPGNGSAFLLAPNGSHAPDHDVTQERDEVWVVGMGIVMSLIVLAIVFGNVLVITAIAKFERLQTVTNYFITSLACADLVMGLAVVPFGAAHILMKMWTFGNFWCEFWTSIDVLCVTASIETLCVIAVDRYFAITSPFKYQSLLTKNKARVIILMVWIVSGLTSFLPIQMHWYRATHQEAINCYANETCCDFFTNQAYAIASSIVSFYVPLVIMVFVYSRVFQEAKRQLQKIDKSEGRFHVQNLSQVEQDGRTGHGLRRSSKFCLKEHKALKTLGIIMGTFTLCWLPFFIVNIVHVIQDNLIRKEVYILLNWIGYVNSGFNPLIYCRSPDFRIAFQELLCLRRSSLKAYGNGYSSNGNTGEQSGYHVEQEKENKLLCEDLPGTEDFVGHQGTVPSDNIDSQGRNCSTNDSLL", "experiment": "ADRB2 activation measured by internalization – cell-based, FAP fluorogen, flow cytometry, cherry pick 1, dose response (AID 588763)", "type": "functional"}, "[4]": {"experiment": "viability of uninfected HEp-2 cells – cell-based, HTS, cytotoxicity control for RSV inhibitor project, dose response (AID 2410)", "type": "functional", "settings": "human respiratory syncytial virus"}, "BJ [5]": {"system": "BJ", "experiment": "BJ-TERT-LT-ST fibroblast viability loss – cell-based, RAS-independent, luminescence, dose response (AID 1935);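 further: BJ fibroblasts immortalized with TERT plus LT and ST oncogenes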", "type": "functional", "settings": "Homo sapiens"}, "[6]": {"experiment": "DRD fibroblast viability loss – cell-based, non-viral oncogenic, luminescence, dose response (AID 1934)", "type": "functional", "settings": "Homo sapiens"}, "[7]": {"experiment": "blockade of melanocortin 4 receptor signaling – cell-based, plate reader, cherry pick, counter-screen for LGR2 antagonist project, dose response (AID 743444);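 further: transfected HEK 293 cells stimulated with alpha-MSH peptide; potency of inhibitors of the alpha-MSH evoked signal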", "type": "functional"}, "[8]": {"experiment": "A549 cell cytotoxicity, dose response, cytotoxicity control, plate reader, cherry-pick, antagonist series (AID 743412)", "type": "functional, cell-based"}, "[9]": {"molecular_target": "T2, Microphthalmia-associated transcription factor (Homo sapiens, UniProt O75030)", "T2 sequence (O75030 whole entry)": "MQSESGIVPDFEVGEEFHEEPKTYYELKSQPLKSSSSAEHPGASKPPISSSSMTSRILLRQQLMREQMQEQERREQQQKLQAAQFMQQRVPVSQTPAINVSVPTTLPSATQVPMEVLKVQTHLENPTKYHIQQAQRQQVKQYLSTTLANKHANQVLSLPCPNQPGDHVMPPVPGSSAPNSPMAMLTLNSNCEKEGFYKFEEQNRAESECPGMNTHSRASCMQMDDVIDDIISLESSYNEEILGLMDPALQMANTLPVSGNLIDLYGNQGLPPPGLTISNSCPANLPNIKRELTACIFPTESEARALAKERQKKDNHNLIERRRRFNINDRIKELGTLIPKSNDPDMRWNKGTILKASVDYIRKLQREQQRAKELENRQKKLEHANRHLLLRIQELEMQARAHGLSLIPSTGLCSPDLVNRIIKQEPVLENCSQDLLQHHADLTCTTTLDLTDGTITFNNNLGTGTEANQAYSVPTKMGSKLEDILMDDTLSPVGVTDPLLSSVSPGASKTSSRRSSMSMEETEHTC", "experiment": "reducers of TRPM1 reporter luminescence, concentration series – cell-based, SK-MEL-5, cherry-picked, set 3, MITF inhibitor project, dose response (AID 493073)", "type": "functional"}, "[10]": {"experiment": "blockers of bursicon-stimulated LGR2 cAMP reporter – cell-based, HEK293, CRE-luciferase reporter, cherry pick, set 2, dose response (AID 743343);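 further: transfected cells were stimulated with diluted bursicon conditioned medium after compound addition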", "type": "functional"}, "BJ [11]": {"system": "BJ", "experiment": "cells", "type": "functional, cell-based", "settings": "Homo sapiens"}, "cells [12]": {"experiment": "cells", "type": "functional, cell-based"}, "cells [13]": {"experiment": "cells", "type": "functional, cell-based", "remark": "listed apart in the source"}, "Vero [14]": {"system": "Vero", "experiment": "mammalian cell viability reduction – secondary assay, cytotoxicity control for West Nile virus antiviral project, dose response (AID 1650)", "type": "functional", "settings": "Chlorocebus sabaeus"}, "[15]": {"experiment": "viability loss in HEK293 cells – cell-based, plate reader, cherry-picked samples, cytotoxicity control, dose response (AID 743446)", "type": "functional"}, "[16]": {"experiment": "toxicity toward HepG2 liver cells – cell-based, plate reader, cherry-pick, antagonist series, cytotoxicity control, dose response (AID 743416)", "type": "functional"}, "[17]": {"molecular_target": "Eukaryotic translation initiation factor 4E (Mus musculus, UniProt P63073)", "sequence (P63073 whole entry)": "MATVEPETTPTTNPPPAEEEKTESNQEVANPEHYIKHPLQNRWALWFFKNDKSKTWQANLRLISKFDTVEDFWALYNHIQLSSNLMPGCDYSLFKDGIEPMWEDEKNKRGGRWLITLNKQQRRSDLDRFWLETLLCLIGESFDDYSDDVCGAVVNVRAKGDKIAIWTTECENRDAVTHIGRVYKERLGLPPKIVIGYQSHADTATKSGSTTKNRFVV", "experiment": "blockers of eIF4G binding by eIF4E – biochemical, TR-FRET, dose response (AID 855);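 further: potency for disrupting eIF4E binding to eIF4GI seen as loss of FRET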", "type": "functional"}, "Vero [18]": {"system": "Vero", "experiment": "cells", "type": "functional", "settings": "Chlorocebus sabaeus"}, "HeLa": {"system": "HeLa", "experiment": "ATP-based viability loss in HeLa cells – cell-based, CellTiter-Glo luminescence, cherry-pick samples, cytotoxicity control for MITF activator project, dose response (AID 540259)", "type": "functional", "settings": "Homo sapiens"}, "BJ [19]": {"system": "BJ", "experiment": "growth inhibition of engineered Ras-driven BJ cells – cell-based, alamar blue fluorescence, cherrypicked samples, dose response (AID 2631)", "type": "functional", "settings": "Homo sapiens"}}, "note": "Activity calls are given as the source filed them."}
{"smiles": "O=[N+]([O-])c1ccc(Cl)c(/C=N/N2CCN(Cc3ccccc3Cl)CC2)c1", "values": [{"measurement": "AC50", "setting": "Cytochrome P450 2D6", "result": "7.94 µM (inconclusive)"}, {"measurement": "AC50", "setting": "Cytochrome P450 1A2", "result": "2.51 µM (inconclusive)"}, {"measurement": "AC50", "setting": "Cytochrome P450 2C9", "result": "inconclusive"}]}
{"smiles": "O=C(COC(=O)c1ccccc1C(=O)c1ccc(Cl)c([N+](=O)[O-])c1)NC1CC1", "values": [{"measurement": "EC50", "setting": "BJ [1]", "result": "5.11 µM (active)"}, {"measurement": "EC50", "setting": "[2]", "result": "3.79 µM (active)"}, {"measurement": "EC50", "setting": "[3]", "result": "13.3 µM (inactive)"}, {"measurement": "CC50", "setting": "[4]", "result": "10.2 µM (active)"}, {"measurement": "EC50", "setting": "BJ [5]", "result": "92.6 µM (inconclusive)"}, {"measurement": "EC50", "setting": "[6]", "result": "10.1 µM (inconclusive)"}, {"measurement": "AC50", "setting": "[7]", "result": "15.4 µM (active)"}, {"measurement": "AC50", "setting": "[8]", "result": "7.05 µM (active)"}, {"measurement": "AC50", "setting": "[9]", "result": "8.92 µM (active)"}, {"measurement": "AC50", "setting": "[10]", "result": "11.8 µM (active)"}, {"measurement": "EC50", "setting": "BJ [11]", "result": "6.82 µM (inconclusive)"}]}
{"smiles": "CC1(C)Cc2c(c(-c3ccco3)nc3sc4c(NCC5CCCO5)ncnc4c23)CO1", "note": "(stereo not given)", "values": [{"measurement": "EC50", "setting": "[3]", "result": "0.0919 µM (active)"}]}
{"smiles": "O=C(Cn1cnc([N+](=O)[O-])c1)NCCc1ccccc1", "values": [{"measurement": "EC50", "setting": "cells [12]", "result": "> 29.9 µM (inactive)"}, {"measurement": "IC50", "setting": "cells [13]", "result": "> 29.9 µM (inactive)"}]}
{"smiles": "O=C(CCN1C(=O)/C(=C/c2ccccc2Cl)SC1=S)N1CCOCC1", "values": [{"measurement": "CC50", "setting": "Vero [14]", "result": "67.3 µM (active)"}]}
{"smiles": "CCCN(CCC)CCCNC(=O)c1cc2cc3ccc(Cl)cc3nc2o1", "values": [{"measurement": "CC50", "setting": "Vero [14]", "result": "> 100 µM (active)"}]}
{"smiles": "C[C@H]1CN([C@@H](C)CO)C(=O)Cc2cc(NS(=O)(=O)c3ccc(Cl)cc3)ccc2O[C@@H]1CN(C)Cc1ccccc1", "values": [{"measurement": "AC50", "setting": "[15]", "result": "29.6 µM (active)"}, {"measurement": "AC50", "setting": "[16]", "result": "16.9 µM (active)"}, {"measurement": "AC50", "setting": "[7]", "result": "38.7 µM (active)"}, {"measurement": "AC50", "setting": "[8]", "result": "13.1 µM (active)"}, {"measurement": "AC50", "setting": "[10]", "result": "31.5 µM (active)"}]}
{"smiles": "Cc1ccc(/C=C/C(O)=C2/C(=O)N(C)C3(C)CC2c2ccccc2O3)cc1", "note": "(stereo not given)", "values": [{"measurement": "CC50", "setting": "Vero [14]", "result": "41 µM (active)"}, {"measurement": "IC50", "setting": "[17]", "result": "> 64 µM (inactive)"}, {"measurement": "CC50", "setting": "Vero [18]", "result": "15.4 µM (active)"}]}
{"smiles": "CCCc1ccc(OCc2nc(-c3ccc(NC(=O)c4cccs4)cc3)no2)cc1", "values": [{"measurement": "AC50", "setting": "HeLa", "result": "49.1 µM (active)"}, {"measurement": "EC50", "setting": "[3]", "result": "0.539 µM (active)"}]}
{"smiles": "CCC(=O)N1CCc2cc(Br)cc(S(=O)(=O)N(C)c3ccc(OC)cc3)c21", "values": [{"measurement": "EC50", "setting": "[3]", "result": "0.0271 µM (active)"}]}
{"smiles": "CCc1ccc(NC(=O)[C@H](Cc2c[nH]c3ccccc23)NC(=O)[C@@H]2Cc3ccccc3CN2)cc1", "values": [{"measurement": "EC50", "setting": "BJ [1]", "result": "> 150 µM (not active)"}, {"measurement": "EC50", "setting": "BJ [19]", "result": "> 133 µM (inactive)"}, {"measurement": "EC50", "setting": "BJ [5]", "result": "> 150 µM (not active)"}, {"measurement": "EC50", "setting": "[6]", "result": "> 150 µM (inconclusive)"}, {"measurement": "EC50", "setting": "BJ [11]", "result": "10.8 µM (active)"}]}
